Measurements from US11001605B2, “Cyclic dinucleotides containing benzimidazole, method for the production of same, and use of same to activate stimulator of interferon genes (sting)-dependent signaling pathways” (BIOLOG LIFE SCIENCE INSTITUTE GmbH & Co. KG, priority 2016, dated 2021).

Assay: Lipophilicity determination by gradient HPLC (log k′g)
Format: physicochemical
Conditions: HPLC gradient 1, RP-18, triethylammonium phosphate buffer pH 6.5 / methanol (ion pair chromatography)
Protocol: Gradient 1: Stationary phase: Polygosil 60-10, RP-18; 250×4 mm (Macherey & Nagel, DOren, Germany). Mobile phase A: 10 ml 1 M triethylammonium phosphate buffer (TEAP), pH 6.5+990 ml methanol. Mobile phase B: 10 ml 1 M TEAP, pH 6.5+990 ml H2O. Time program: 0 min: 100% B; 60 min: 100% A; 65 min: 100% A; 70 min: 100% B; 90 min: 100% B. Flow rate: 1.0 ml/min.
The octanol/water coefficient Log P is the commonly accepted indicator for the expected property of a given chemical entity to pass cellular membranes by passive diffusion. However, its practical determination for polar compounds such as multiply charged nucleotides is difficult in reality. Often, the information about membrane permeability must be received by fragmental analysis or other calculations.
Given this fact, an established HPLC method is used here, which is based on the measurement of retention on a reversed phase column^7. In contrast to Log P, this method yields the indicator log k′g, which allows for a ranking of different nucleotides of the same charge according to their lipophilicity.
Since CDNs are twofold negatively charged molecules which are only very insufficiently retarded on a reversed phase HPLC column, the determinations were performed in presence of the lipophilic triethylammonium cation (ion pair chromatography).
According to the established method^7 HPLC gradient 1 was used for the determination of lipophilicity.

Structure (SMILES) | log k′g | further results
Nc1nc2c(ncn2[C@@H]2O[C@@H]3COP(=O)(S)OC4C(O)[C@H](n5cnc6ccccc65)O[C@@H]4COP(=O)(S)OC2C3O)c(=O)[nH]1 (single isomer, unassigned) [Compound 23, MI1, Cyclic (guanosine-(2′→5′)-monophosphorothioate-benzimidazole riboside-(3′→5′)-monophosphorothioate)] | – | log k′g (listed as 23, MI1): 1.509
Nc1nc2c(ncn2[C@@H]2O[C@@H]3COP(=O)(S)OC4C(O)[C@H](n5cnc6cc(Cl)c(Cl)cc65)O[C@@H]4COP(=O)(S)OC2C3O)c(=O)[nH]1 (single isomer, unassigned) [Compound 29, MI1, Cyclic (guanosine-(2′→5′)-monophosphorothioate-5,6-dichlorobenzimidazole riboside-(3′→5′)-monophosphorothioate)] | – | log k′g (listed as 29, MI1): 2.318
Nc1ncnc2c1ncn2[C@@H]1O[C@@H]2COP(=O)(S)OC3C(O)[C@@H](COP(=O)(S)OC2C1O)O[C@H]3n1cnc2ccccc21 (single isomer, unassigned) [Compound 98, MI2, Cyclic (adenosine-(3′→5′)-monophosphorothioate-benzimidazole riboside-(2′→5′)-monophosphorothioate)] | – | log k′g (listed as 98, MI2): 1.584
Nc1nc2c(ncn2[C@@H]2O[C@@H]3COP(=O)(O)O[C@H]4[C@@H](O)[C@H](n5cnc6c(N)ncnc65)O[C@@H]4COP(=O)(O)O[C@@H]2[C@@H]3O)c(=O)[nH]1 [2′,3′-cGAMP, reference compound] | 0.766 | –
O=P1(O)OC[C@H]2O[C@@H](n3cnc4ccccc43)C(O)C2OP(=O)(O)OC[C@H]2O[C@@H](n3cnc4ccccc43)C(O)C2O1 (some centres unmarked) [Compound 1, cyclic (benzimidazole riboside- (3′ −> 5′)-monophosphate- benzimidazole riboside-(3′ −> 5′)- monophosphate)] | 1.732 | –
O=P1(O)OC[C@H]2O[C@@H](n3cnc4cc(Cl)c(Cl)cc43)C(O)C2OP(=O)(O)OC[C@H]2O[C@@H](n3cnc4cc(Cl)c(Cl)cc43)C(O)C2O1 (some centres unmarked) [Compound 7, cyclic (5,6-dichlorobenzimidazole riboside-(3′ −> 5′)-monophosphate-5,6-dichlorobenzimidazole riboside-(3′ −> 5′)-monophosphate)] | 2.970 | –
O=c1[nH]cnc2c1ncn2[C@@H]1O[C@@H]2COP(=O)(O)OC3C(O)[C@H](n4cnc5ccccc54)O[C@@H]3COP(=O)(O)OC2C1F (some centres unmarked) [Compound 85, cyclic (2′-fluoro-2′-deoxyinosine-(3′ −> 5′)-monophosphate-benzimidazole riboside-(3′ −> 5′)-monophosphate)] | 1.211 | –
Nc1nc2c(ncn2[C@@H]2O[C@@H]3COP(=O)(O)O[C@H]4[C@@H](O)[C@H](n5cnc6c(=O)[nH]c(N)nc65)O[C@@H]4COP(=O)(O)O[C@H]3[C@H]2O)c(=O)[nH]1 [c-diGMP, reference compound] | 0.840 | –
